The values below come from US5003044A, “Peptide inhibitors of motor neuron attachment to s-laminin” (Washington University, priority 1989, dated 1991).

Assay [1] deals with adhesion of ciliary neurons to pET-RK36 s-laminin fragment. Particulars: for Inhibition of neuronal adhesion to pET-RK36 / s-laminin (in words): concentration not given.
The test system of assay [2] is ciliary ganglion neurons. As to the kind of experiment: Cell attachment assay on immobilized substrata, ciliary ganglion neurons. Format: cell-based, chick. As to the method: (§1) Substrates were immobilized to tissue culture dishes as described by Lagenaur and Lemmon, Proc. Natl. Acad. Sci. USA 84, 7753-7757 (1987). Briefly, nitrocellulose (BA85; Schleicher and Schuell, Keene, N.H.) was dissolved in methanol (1 cm^2 /ml), applied to tissue culture wells (90 µl per 16 mm diameter well) and allowed to dry. Drops (1.5-3 μl) of substrates in solution were applied and allowed to bind for 20 min. after which the drops were aspirated. Nonspecific binding sites on the nitrocellulose were then blocked by incubating wells with the following series of solutions: 10 mg/ml bovine serum albumin (BSA; Sigma) in PBS for ~1 min; 30 mg/ml BSA in PBS for 2-3 hr; Earles' Minimum Essential Medium (MEM) containing 2% fetal bovine serum and 25 mM HEPES, pH 7.4, for 5 min; PBS, twice briefly; and Earles' MEM containing 1 mg/ml BSA and 25 mM HEPES, pH 7.4, for 30 min at 37° C. in a humidified chamber containing 7% CO2. At this point, neurons were added, with or without synthetic peptides, and incubated for 2 hr at 37° C. Finally, the wells were washed twice with PBS pre-warmed to 37° and adherent cells were fixed in place with 2% paraformaldehyde and 2% glutaraldehyde in PBS.
Neurons were dissociated from chick ciliary ganglia as previously described by Nishi and Berg, Proc. Natl. Acad. Sci. USA 74, 5171-5175 (1977);
Covault et al., J. Cell Biol. 105, 2479-2488 (1987). Each well received ~5000 neurons, which corresponds to ~1 E8 ganglia, ~1.5 E10 ganglia, and ~2 E13 ganglia (E8, E10 and E13 are stages of development of the embryonic chick) [neuronal death is occurring over this time course; Landmessen and Pilar, J. Physiol. 241, 715-736 (1974)]. Chick dorsal root ganglia and optic tecta were dissociated in the same manner; each well received cells from 4-5 dorsal root ganglia or 0.25 optic tecta. For B35 and B104 cell lines, each well received 20,000 cells. For PC12 cells, each well received 5000 cells. In some tests, PC12 cells were grown with 50 ng/ml nerve growth factor (NGF) for 3-6 days before use. All cells were suspended in Earles' MEM containing 1 mg/ml BSA and 25 mM HEPES, pH 7.4, for addition to tissue culture wells.
Cell attachment assays were performed as described hereinbefore.

Assay [3] deals with dorsal root ganglion neurons. Nature of the assay: Cell attachment assay on immobilized substrata, dorsal root ganglion neurons. Format: cell-based, chick. Conditions: sensory neurons (cell type implied by context). How it is done:
as §1, with “Finally, the wells were washed twice with PBS pre-warmed to 37° and adherent cells were fixed in place with 2% paraformaldehyde and 2% glutaraldehyde in PBS.” left out
(§2) Ciliary neurons were selected for initial tests because many of these neurons normally form neuromuscular junctions on striated muscle fibers in vivo [Pilar et al., J. Neurophys. […] To extend these tests, it was determined whether neurons of other types also adhered to the s-laminin fragments. […]

Assay [4] concerns tectal neurons. As to the kind of experiment: Cell attachment assay on immobilized substrata, tectal neurons. The assay is classed as cell-based, chick. Conditions: 2 hr. As to the method:
as §1, with “Finally, the wells were washed twice with PBS pre-warmed to 37° and adherent cells were fixed in place with 2% paraformaldehyde and 2% glutaraldehyde in PBS.” left out
as §2

In assay [5] the test system is neurons and neuron-like cells. As to the kind of experiment: Cell attachment assay, each cell type of Table 1. The assay is classed as cell-based. Particulars: for each cell type, Table 1 footnote. As to the method: as §1
Covault et al., J. Cell Biol. 105, 2479-2488 (1987). […]

No end group written: not given here.

For orientation: IC50 means the concentration that gives 50% inhibition. A higher IC50 goes with weaker potency in that assay.

Regarding AEKQLR [Peptide M511], the “Inhibition of neuronal adhesion to pET-RK36 / s-laminin (in words)” value in assay [1] is “inhibiting activity is not shown”.

AEKQLREQVGD [Peptide M51]: in assay [1], the IC50 fell in the range of 10 to 20 µM and the “IC50 for inhibition of neuronal adhesion to pET-RK36” value is on record as ~ 20 μg/ml.

On to AEKQLREQVGDQYQTVRALAE [Peptide M5], for which, in assay [1], the IC50 was 10 to 20 µM.

For the substance KQLREQ [Peptide M512], in assay [1], the “Inhibition of neuronal adhesion to pET-RK36 / s-laminin (in words)” value is recorded as “inhibitory”.

Regarding LREQVG [Peptide M513], in assay [1], the “Inhibition of neuronal adhesion to pET-RK36 / s-laminin (in words)” value was “inhibitory”.

laminin: the “Applied ciliary neurons adhered” value in assay [2] (2 hour assay, optimal concentration of substrate on nitrocellulose) is on record as 30-40%. The “Adhesion of ciliary neurons to substrate (FIG. 3)” value in assay [2] (2 hr, laminin 100 μg/ml, pET-RK36 10 μg/ml) is recorded as “adhere well”. For the same substance, in assay [2] (Mr ~900,000 laminin, ~20,000 s-laminin fragment), the “Optimal concentration in molar terms” value was ~ 0.5 μM. In assay [2] (ciliary neurons), the “Concentration of applied solution giving maximal adhesion” value is listed as ~ 500 μg/ml and the “Lowest concentration in solution with significant adhesion” value was 20 µg/mL. The “Fold more cells adhered to laminin than to s-laminin” value in assay [3] is “at least 10 fold”. Also, in assay [4], the “Adhesion of tectal cells to substrate (FIG. 3)” value is recorded as “adhere well”. Also, in assay [5], the “Cells applied that adhered to laminin” value came to 20.

poly-lysine: the “More neurons adhered to poly-lysine than to either laminin or s-laminin” value in assay [2] (ciliary neurons, each stage E8-E13) is 30-50%.

In the case of β-galactosidase: pure β-galactosidase, the “Attachment of ciliary neurons to recombinant proteins / bacterial extracts (FIG. 2)” value in assay [2] (control for vector-encoded sequences) was “no significant attachment”.
